How the values were obtained:
[1] = system: phosphate transporter PHT1;4; test: 8′G::GUS, follow-up of the expression of the phosphate transporter PHT1;4 (GUS staining); type: in vivo, A. thaliana; conditions: compound added to the cultivation medium
Source text: 8′G cell line was obtained as follows: for the PHT1;4 promoter fusion, a 2 kb region upstream of the ORF of PHT1;4 was cloned in the vector pENTR/D-TOPO (pENTRT™/D-TOPO® Cloning Kit, ref. K2400-20, Invitrogen) and transferred to pKGWFS7 (Karimi et al., 2002) by recombination using Gateway BP (Gateway® BP Clonase® enzyme mix, ref. 11789-013, Invitrogen) and LR Clonase enzyme mixes (LR Clonase® II Plus enzyme, ref. 12538-120, Invitrogen), respectively, to produce the pPHT1;4:GUS-GFP gene fusion. This fusion was then introduced into the Arabidopsis genome via the Agrobacterium-mediated transformation system (Logemann et al., 2006).
(§1) Plants were examined for GUS activity by dipping the samples in a GUS staining solution (50 mM sodium phosphate buffer pH 7.0; 0.01% Triton X-100, 1 mM K3Fe(CN)6, 1 mM K4Fe(CN)6, 1 mg/ml 5-dromo-4-chloro-3-indolyl (3-D-GLUCURONIDE (X-Gluc A) and incubated at 37° C. over-night. After staining, the plants were fixed 2 hours in 50 mM sodium phosphate buffer pH 7.0; 1% glutaraldehyde; 4% formaldehyde.

iron transporter IRT1 = test: IRT1::GUS, follow-up of the expression of the gene encoding the iron transporter IRT1 (GUS staining); type: in vivo, A. thaliana; conditions: compound added to the cultivation medium; MC2 5 μM, FIG. 13
Experimental: as §1, with “pIRT1:GUS cells were obtained as described by Vert et al. (Vert et al., 2002) and carry a irt1 promoter-GUS fusion. […] Plants” for “Plants”

enzyme MGD3 = test: MGD3::GUS, follow-up of the expression of the gene encoding the enzyme MGD3 (GUS staining); type: in vivo, A. thaliana; conditions: high phosphate medium + MC2 5 μM, FIG. 9
Experimental: pMGD3:GUS cells are as described by Kobayashi et al. (Kobayashi et al., 2004). In these cells, the GUS reporter is expressed under the control of the mgd3 promoter. […] Plants were examined for GUS activity by dipping the samples in a GUS staining solution (50 mM sodium phosphate buffer pH 7.0; 0.01% Triton X-100, 1 mM K3Fe(CN)6, 1 mM K4Fe(CN)6, 1 mg/ml 5-dromo-4-chloro-3-indolyl (3-D-GLUCURONIDE (X-Gluc A) and incubated at 37° C. over-night. After staining, the plants were fixed 2 hours in 50 mM sodium phosphate buffer pH 7.0; 1% glutaraldehyde; 4% formaldehyde. In response to phosphate starvation, the lipid metabolism is modified (Benning and Ohta, 2005). Plants preferentially synthesize sulpho- and galacto-lipids instead of phospholipids. Several enzymes are involved in this remobilisation.

Cyclin B1 = test: CycB1::GUS, follow-up of the expression of the gene encoding Cyclin B1 (meristematic activity marker); type: in vivo, A. thaliana; conditions: high phosphate medium + MC2 5 μM, FIG. 6
Source text: pCycB1;1:GUS cell line is as described by Colón-Carmona et al. (Colon-Carmona et al., 1999), and expresses the GUS reporter under the control of the promoter of the cyclin B1 gene. […] In response to phosphate deficiency, CycB1 is less expressed. Suprisingly, in response to MC2, the meristematic activity is not reduced (FIG. 6). Thus, it can be concludes that the primary root growth inhibition observed in response to the molecule is not due to inhibition of the meristematic activity.

wild type seedlings = test: Anthocyanins content (spectrophotometric); type: in vivo, A. thaliana; parameters: key to Antho: anthocyanin content as A530 - 2.2*A652
Experimental: Anthocyanins were extracted with propanol:HCl:H2O (81:1:18) for 5 min at room temperature and 3 min at 100° C. Samples are centrifuged for 10 min at 4° C. Supernatants were collected and absorption measured at 530 nm and […]. Anthocyanin content was calculated as A530-2.2A652 (Lange et al., 1971).

wild-type seedlings = test: Free cellular Pi content (malachite green method); type: in vivo, A. thaliana; conditions: high phosphate medium + MC2 5 μM vs control condition, FIG. 3
Experimental: Three replicates were performed for each experiment. After 5 min of centrifugation, the supernatant was recovered. Phosphate content was measured using the malachite green method as described (Delhaize and Randall, 1995). One hundred and fifty microliters of molybdate solution (17.55 g/l (NH4)6Mo7, 4H2O, 2M H2SO4) were added to the sample (50 μl) diluted in water (700 μl). Ten minutes later, 150 μl of green malachite solution (3.5 g/l polyvinylic alcohol, 0.35 g/l malachite green) were then added. Measurements were carried out at 610 nm after 2 h. Concentrations were calculated using a calibration curve (performed with aKH2PO4 solution) and expressed per fresh weight. To evaluate if this expression interferes with phosphate content, phosphate content was analyzed in different conditions: high phosphate medium (+Pi), low phosphate medium (−Pi) and high phosphate medium+MC2, 5 μM (+Pi, +MC2 5 μM). […] This phosphate accumulation can be easily explained by the overexpression of the phosphate transporter.

Acid phosphatase = Acid phosphatase activity in root extract (spectrophotometric); type: in vivo; conditions: 10 days old plants, high phosphate medium + 5 μM MC2, FIG. 4
Experimental: FIG. 4: Acid phosphatase activity was assayed spectrophotometrically in root extract from 10 days old plants grown in high phosphate medium, in low phosphate medium or in high phosphate medium supplied with 5 μM of MC2. Values represent the mean of 3 experiments±SD.
In response to phosphate deficiency, plants are able to secrete phosphatase in soil in order to remobilize phosphate from soil.

Medicago truncatula = test: Root growth of Medicago truncatula in phosphate deficient medium; type: in vivo; conditions: phosphate 10 μM, MC2 5 μM, 10 days, FIG. 14
Experimental: Medicago truncatula seeds were surface-sterilized as follow: soaking in concentrated sulphuric acid for 10 min, rinsing three times with sterile distilled water, soaking in 10% bleach/0.1% Tween 20 solution for 10 min with gentle agitation and finally by rinsing seeds three times with sterile distilled water. Seeds were germinated 48 h in dark. […] In the phosphate (Pi) deficient medium, NaCl (0.5 mM) was used to replace the equivalent amount of sodium provided by NaH2PO4.). Plants were maintained 10 days under a 14 h light/10 h 150 μm^−2s^−1 dark regime with a temperature of 22/18° C. for light/dark phases in a phytotron.

MGD3 expression (in words) (enzyme MGD3): strongly expressed | phosphatase activity (Acid phosphatase): inducing phosphatase activity
Structure (SMILES): Cc1cccc(NC=C2C(=O)CC(C)(C)CC2=O)n1 [MC2]
PHT1;4 expression (in words, summary of analogues) [1]: induce expression of the Pht1;4 gene | IRT1 expression (in words) (iron transporter IRT1): inhibits IRT1 expression | meristematic activity (CycB1 expression, in words) (Cyclin B1): not reduced | anthocyanins accumulation (in words) (wild type seedlings; MC2 5 μM, FIG. 8): strong accumulation | Antho (wild type seedlings; accumulation of anthocyanes, +P control 46, −P 1008): 454 | phosphate accumulation in leaves (wild-type seedlings): two times more | phosphate accumulation in roots (wild-type seedlings): two times more | growth of roots in a Pi deficient medium (Medicago truncatula): improved

From patent publication US9028855B2, “Plant additives and uses thereof to modulate the synthesis of membrane glycerolipids in planta” (Commissariat a l'Energie Atomique et aux Energies …, priority 2009, dated 2015)
